Laboratory results from US12459914B2, “Compounds and compositions for the treatment of tumors” (FONDAZIONE ISTITUTO ITALIANO DI TECNOLOGIA, priority 2019, dated 2025).

Tests used:
BxPC-3 cells = assay: Cell viability assay (CellTiter Glo); type: cell-based; conditions: Homo sapiens, 72 h
Method: BxPC-3 cells were grown in RPMI 1640 containing 10% FBS, 100 U/ml penicillin/streptomycin, 2 mM glutamine. All media and supplements were from Sigma-Aldrich. Cultures were routinely tested for Mycoplasma contamination. Treatments (Olaparib and BRCA2-Rad51 disruptors) were administered in culture medium supplemented with 0.6% DMSO. The same amount of DMSO was added to the control, untreated cultures.
Cell viability was assessed by CellTiter Glo, Luminescent Cell Viability Assay. Briefly, BxPC-3 cells (1×10^4/well) were plated in white 96-well plates with clear bottom and treated for 72 h with olaparib (10 μM) or with the BRCA2-Rad51 disruptors, given alone or in combination. After treatments, the plate was allowed to equilibrate at room temperature for 30 min and the CellTiter-Glo reactive was directly added to each well. The plate was kept on a shaker for 2 min to induce cell lysis and its luminescence was measured by using a Fluoroskan Ascent FL reader (Labsystems) using manufacturer's instructions.

BRC4/RAD51 interaction = molecular target: T1, BRC4/RAD51 interaction (Homo sapiens, UniProt Q06609); assay: Competitive ELISA assay, disruption of BRC4/RAD51 interaction; type: binding; conditions: human Rad51, biotinylated BRC4 peptide
T1 construct: purchased Creative Biomart (Rad51); Life Technologies (BRC4 peptide)
T1 sequence (Q06609 1-339): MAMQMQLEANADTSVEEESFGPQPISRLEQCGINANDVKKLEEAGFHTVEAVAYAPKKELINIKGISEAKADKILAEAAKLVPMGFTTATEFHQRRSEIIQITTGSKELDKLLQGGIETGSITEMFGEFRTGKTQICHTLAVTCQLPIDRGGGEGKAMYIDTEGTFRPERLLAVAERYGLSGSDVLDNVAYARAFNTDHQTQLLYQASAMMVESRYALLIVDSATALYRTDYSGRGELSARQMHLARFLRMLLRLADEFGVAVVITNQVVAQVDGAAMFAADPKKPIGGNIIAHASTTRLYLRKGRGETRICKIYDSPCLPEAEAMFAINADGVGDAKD
Method: A competitive ELISA screening assay using biotinylated BRC4 peptide to disrupt the BRC4/RAD51 interaction was performed by modifying the method described by Rajendra et al. (Nucleic Acids Res. 38 (2010) 82-96). BRC4-biotinylated peptide (N-term Biotin[…] from Life Technologies) was used to coat 384-well plates (Nunc). After washing with PBS containing 0.05% Tween-20 (PBST), and blocking with the solution BSA 1%/PBST, overnight hybridization with human Rad51 protein (NP_002866 Creative Biomart, NY) was performed. Test compounds were added in dose-response from […] in triplicate with constant DMSO 1%. Antibody raised against Rad51 (Millipore) and HRP-secondary antibody staining to develop the 3,30,5,50-tetramethyllbenzidine signal (Sigma) quenched with 1M HCl was used as the assay readout. Colorimetric measure was read on Victor5 (PerkinElmer) plate Reader. BRC4 and Rad51 were included in the assay as positive control. Results were analyzed using GraphPad Software.

SMILES	EC50 (BxPC-3 cells)	EC50 (BRC4/RAD51 interaction)
CC(=O)N1N=C(c2c(-c3ccccc3)c3cc(Cl)ccc3[nH]c2=O)CC1c1ccc2c(ccn2C)c1 (stereo not shown) [d.23, 3-[2-acetyl-3-(1-methylindol-5-yl)-3,4-dihydropyrazol-5-yl]-6-chloro-4-phenyl-1H-quinolin-2-one]	4.8 µM	18 µM
O=C(O)CCC(=O)N1N=C(c2c(Cc3ccccc3)c3cc(Cl)ccc3[nH]c2=O)CC1c1ccc(Cl)cc1 (stereo not shown) [d.55, 4-[5-(4-benzyl-6-chloro-2-oxo-1H-quinolin-3-yl)-3-(4-chlorophenyl)-3,4-dihydropyrazol-2-yl]-4-oxo-butanoic acid]	23.2 µM	70 µM
CCn1ccc2cc(C3CC(c4c(-c5ccccc5)c5cc(Cl)ccc5[nH]c4=O)=NN3C(=O)CCC(=O)O)ccc21 (stereo not shown) [d.24, 4-[5-(6-chloro-2-oxo-4-phenyl-1H-quinolin-3-yl)-3-(1-ethylindol-5-yl)-3,4-dihydropyrazol-2-yl]-4-oxo-butanoic acid]	> 40 µM	10 µM
CC(C)(C)c1ccc(C2CC(c3c(-c4ccccc4)c4cc(Cl)ccc4[nH]c3=O)=NN2C(=O)CCC(=O)O)cc1 (stereo not shown) [d.16, 4-[3-(4-tert-butylphenyl)-5-(6-chloro-2-oxo-4-phenyl-1H-quinolin-3-yl)-3,4-dihydropyrazol-2-yl]-4-oxo-butanoic acid]	71.2 µM	> 100 µM
CCC(=O)N1N=C(c2c(-c3ccccc3)c3cc(Cl)ccc3[nH]c2=O)CC1c1ccccc1 (stereo not shown) [d.48, 6-chloro-4-phenyl-3-(3-phenyl-2-propanoyl-3,4-dihydropyrazol-5-yl)-1H-quinolin-2-one]	13.7 µM	24 µM
CCCn1cc(-c2ccc(C3CC(c4c(-c5ccccc5)c5cc(Cl)ccc5[nH]c4=O)=NN3C(=O)CCC(=O)O)cc2)cn1 (stereo not shown) [d.43, 4-[5-(6-chloro-2-oxo-4-phenyl-1H-quinolin-3-yl)-3-[4-(1-propylpyrazol-4-yl)phenyl]-3,4-dihydropyrazol-2-yl]-4-oxo-butanoic acid]	74.2 µM	65 µM
Cn1cc2cc(C3CC(c4c(-c5ccccc5)c5cc(Cl)ccc5[nH]c4=O)=NN3C(=O)CCC(=O)O)ccc2n1 (stereo not shown) [d.28, 4-[5-(6-chloro-2-oxo-4-phenyl-1H-quinolin-3-yl)-3-(2-methylindazol-5-yl)-3,4-dihydropyrazol-2-yl]-4-oxo-butanoic acid]	> 100 µM	> 100 µM
CC(=O)N1N=C(c2c(-c3ccccc3)c3cc(Cl)ccc3[nH]c2=O)CC1c1ccc(-c2ccc(Br)cc2)cc1 (stereo not shown) [d.40, 3-[2-acetyl-3-[4-(4-bromophenyl)phenyl]-3,4-dihydropyrazol-5-yl]-6-chloro-4-phenyl-1H-quinolin-2-one]	28 µM	45 µM
CCn1cc2cc(C3CC(c4c(-c5ccccc5)c5cc(Cl)ccc5[nH]c4=O)=NN3C(C)=O)ccc2n1 (stereo not shown) [d.30, 3-[2-acetyl-3-(2-ethylindazol-5-yl)-3,4-dihydropyrazol-5-yl]-6-chloro-4-phenyl-1H-quinolin-2-one]	16.8 µM	> 100 µM
CCn1cc2cc(-c3ccc(C4CC(c5c(Cc6ccccc6)c6cc(Cl)ccc6[nH]c5=O)=NN4C(=O)CCC(=O)O)cc3)ccc2n1 (stereo not shown) [d.93, 4-[5-(4-benzyl-6-chloro-2-oxo-1H-quinolin-3-yl)-3-[4-(2-ethylindazol-5-yl)phenyl]-3,4-dihydropyrazol-2-yl]-4-oxo-butanoic acid]	56.6 µM	53 µM
O=C(O)CCC(=O)N1N=C(c2c(-c3ccccc3)c3cc(Cl)ccc3[nH]c2=O)CC1c1ccc(C(F)(F)F)cc1 (stereo not shown) [d.14, 4-[5-(6-chloro-2-oxo-4-phenyl-1H-quinolin-3-yl)-3-[4-(trifluoromethyl)phenyl]-3,4-dihydropyrazol-2-yl]-4-oxo-butanoic acid]	50 µM	29 µM
CCCn1cc2cc(C3CC(c4c(-c5ccccc5)c5cc(Cl)ccc5[nH]c4=O)=NN3C(=O)CCC(=O)O)ccc2n1 (stereo not shown) [d.35, 4-[5-(6-chloro-2-oxo-4-phenyl-1H-quinolin-3-yl)-3-(2-propylindazol-5-yl)-3,4-dihydropyrazol-2-yl]-4-oxo-butanoic acid]	62.6 µM	> 100 µM
CCn1cc2cc(C3CC(c4c(-c5ccccc5)c5cc(Cl)ccc5[nH]c4=O)=NN3C(=O)CCC(=O)O)ccc2n1 (stereo not shown) [d.29, 4-[5-(6-chloro-2-oxo-4-phenyl-1H-quinolin-3-yl)-3-(2-ethylindazol-5-yl)-3,4-dihydropyrazol-2-yl]-4-oxo-butanoic acid]	> 50 µM	28 µM
CC(=O)N1N=C(c2c(-c3ccccc3)c3cc(Cl)ccc3[nH]c2=O)CC1c1ccc2c(cnn2C)c1 (stereo not shown) [d.27, 3-[2-acetyl-3-(1-methylindazol-5-yl)-3,4-dihydropyrazol-5-yl]-6-chloro-4-phenyl-1H-quinolin-2-one]	21 µM	9 µM
O=C(O)CCC(=O)N1N=C(c2c(-c3ccccc3)c3cc(Cl)ccc3[nH]c2=O)CC1c1ccc(F)cc1 (stereo not shown) [d.1, 4-[5-(6-chloro-2-oxo-4-phenyl-1H-quinolin-3-yl)-3-(4-fluorophenyl)-3,4-dihydropyrazol-2-yl]-4-oxo-butanoic acid]	> 50 µM	38 µM
CCn1ncc2cc(C3CC(c4c(-c5ccccc5)c5cc(Cl)ccc5[nH]c4=O)=NN3C(=O)CCC(=O)O)ccc21 (stereo not shown) [d.31, 4-[5-(6-chloro-2-oxo-4-phenyl-1H-quinolin-3-yl)-3-(1-ethylindazol-5-yl)-3,4-dihydropyrazol-2-yl]-4-oxo-butanoic acid]	> 50 µM	> 100 µM
COc1ccc(C2CC(c3c(-c4ccccc4)c4cc(Cl)ccc4[nH]c3=O)=NN2C(=O)CCC(=O)O)cc1F (stereo not shown) [d.18, 4-[5-(6-chloro-2-oxo-4-phenyl-1H-quinolin-3-yl)-3-(3-fluoro-4-methoxy-phenyl)-3,4-dihydropyrazol-2-yl]-4-oxo-butanoic acid]	73 µM	> 100 µM
Cn1ncc2cc(C3CC(c4c(-c5ccccc5)c5cc(Cl)ccc5[nH]c4=O)=NN3C(=O)CCC(=O)O)ccc21 (stereo not shown) [d.26, 4-[5-(6-chloro-2-oxo-4-phenyl-1H-quinolin-3-yl)-3-(1-methylindazol-5-yl)-3,4-dihydropyrazol-2-yl]-4-oxo-butanoic acid]	> 50 µM	13 µM
CC(=O)N1N=C(c2c(-c3ccccc3)c3cc(Cl)ccc3[nH]c2=O)CC1c1ccc(C(F)(F)F)cc1 (stereo not shown) [d.15, 3-[2-acetyl-3-[4-(trifluoromethyl)phenyl]-3,4-dihydropyrazol-5-yl]-6-chloro-4-phenyl-1H-quinolin-2-one]	11.4 µM	> 100 µM
CCCn1ncc2cc(C3CC(c4c(-c5ccccc5)c5cc(Cl)ccc5[nH]c4=O)=NN3C(=O)CCC(=O)O)ccc21 (stereo not shown) [d.33, 4-[5-(6-chloro-2-oxo-4-phenyl-1H-quinolin-3-yl)-3-(1-propylindazol-5-yl)-3,4-dihydropyrazol-2-yl]-4-oxo-butanoic acid]	> 100 µM	> 100 µM
CC(=O)N1N=C(c2c(-c3ccccc3)c3cc(Cl)ccc3[nH]c2=O)CC1c1ccc(C(C)(C)C)cc1 (stereo not shown) [d.17, 3-[2-acetyl-3-(4-tert-butylphenyl)-3,4-dihydropyrazol-5-yl]-6-chloro-4-phenyl-1H-quinolin-2-one]	15 µM	15 µM
CC(=O)N1N=C(c2c(-c3ccccc3)c3cc(Cl)ccc3[nH]c2=O)CC1c1ccccc1 (stereo not shown) [d.47, 3-(2-acetyl-3-phenyl-3,4-dihydropyrazol-5-yl)-6-chloro-4-phenyl-1H-quinolin-2-one]	29.7 µM	19 µM
O=C(O)CCC(=O)N1N=C(c2c(-c3ccccc3)c3cc(Cl)ccc3[nH]c2=O)CC1c1ccc(Br)cc1 (stereo not shown) [d.8, 4-[3-(4-bromophenyl)-5-(6-chloro-2-oxo-4-phenyl-1H-quinolin-3-yl)-3,4-dihydropyrazol-2-yl]-4-oxo-butanoic acid]	48 µM	16 µM
CC(=O)N1N=C(c2c(-c3ccccc3)c3cc(Cl)ccc3[nH]c2=O)CC1c1ccc(Br)cc1 (stereo not shown) [d.9, 3-[2-acetyl-3-(4-bromophenyl)-3,4-dihydropyrazol-5-yl]-6-chloro-4-phenyl-1H-quinolin-2-one]	18 µM	38 µM
COc1ccc(-c2ccc(C3CC(c4c(-c5ccccc5)c5cc(Cl)ccc5[nH]c4=O)=NN3C(C)=O)cc2)cc1 (stereo not shown) [d.42, 3-[2-acetyl-3-[4-(4-methoxyphenyl)phenyl]-3,4-dihydropyrazol-5-yl]-6-chloro-4-phenyl-1H-quinolin-2-one]	–	70 µM
